# Test results as given in article PMC6950567, “Evaluation of Marine Diindolinonepyrane in Vitro and in Vivo: Permeability Characterization in Caco-2 Cells Monolayer and Pharmacokinetic Properties in Beagle Dogs” (Marine Drugs, 2019).
# Entries after “also recorded” stand apart in the source; their conditions may differ. Like-named read-outs stand apart in the source and are kept apart here.
# Experiments:
# [1] = Caco-2 cells monolayer absorption and bidirectional transport experiment; assay type: in vitro ADME, human; details: human
# Protocol: (§1) The samples included three control drugs (fenoterol, propranolol, and digoxin) and 2,5-BHPA. […] For transfer in the AP→BL direction, 0.075 mL drug solution was added to the AP side as the supply pool, and 0.25 mL HBSS solution was added to the BL side as the receiving pool. In the BL→AP direction, 0.25 mL compound solution was added to the BL side as the supply pool, and 0.075 mL HBSS solution was added to the AP side as the receiving pool. The transwell plate was then cultured in an incubator at 37 °C for 2 h. Samples on the AP side and BL side were collected, respectively. Then, acetonitrile containing an internal label was added to each upper chamber to lyse transport membranes. The total recovery was calculated by collecting the amount of lead compound absorbed on the membrane surface or accumulated in the cell. Finally, the concentration of each sample was calculated as the ratio of the peak area between the compound and the inner target through mass spectrum analysis (API 4000).
# (§2) Papp = (dCr/dt) × Vr/(A × C0)(2) where dCr/dt is the cumulative compound concentration per unit of time (µM/s); Vr is the volume in the receiving hole (mL); A is the transport membrane area; and C0 is the compound initiation concentration (µM).
# [2] = tested on: Caco-2 cells monolayer; assay: as above; assay type: in vitro ADME, human
# Protocol: as §1, §2
# [3] = Tissue distribution after intravenous injection in beagle dogs; assay type: in vivo; details: 7.5 mg/kg
# Protocol: Moreover, another three dogs were fasted for 24 h with water ad libidum for the tissue distribution study. 2,5-BHPA was administered by intravenous injection at 7.5 mg/kg. Subsequently, their brain, stomach (emptied of gastric contents), heart, large intestine (emptied of gastric contents), liver, kidneys, spleen, urine, lungs, spermary, small intestine (emptied of gastric contents), feces, muscle, bile of dogs were removed at 60 min after compound administration. The tissues were flushed with normal saline, dried, weighed, and homogenized in proper methanol (methanol:sample = 5:1, V/V). The tissue samples were centrifuged at 5000× g for 15 min at RT, and the supernatants were filtered with a 0.22 µm disposable syringe filter for HPLC detection.
# [4] = 5 µM, 0.1% bull serum albumin added
# [5] = 15 µM, 0.1% bull serum albumin added
# [6] = 25 µM, 0.1% bull serum albumin added
smiles,measurement,setting,value
"CC(C)=CCCC(C)=CCCC1(C)Oc2c(c(O)cc3c2CN(CCCC(C(=O)O)N2Cc4c(cc(O)c5c4OC(C)(CCC=C(C)CCC=C(C)C)C(O)C5)C2=O)C3=O)CC1O (stereo not drawn) [2,5-BHPA, 2,5-Bis-[8-(4,8-dimethyl-nona-3,7-dienyl)-5,7-dihydroxy-8-methyl-3-keto-1,2,7,8-tertahydro-6H-pyran[a]isoindol-2-yl]-pentanoic acid]","efflux ratio at 2 h, 0.5 µM","[1]; Caco-2, 0.5 μM, no BSA",1.13
same,"Papp A→B at 2 h, 0.5 µM","[1]; Caco-2, 0.5 μM, no BSA, 2 h, read-out: Mean Papp AP to BL",0.493 ± 0.016 ×10⁻⁶ cm/s
same,"Papp B→A at 2 h, 0.5 µM","[1]; Caco-2, 0.5 μM, no BSA, 2 h, read-out: Mean Papp BL to AP",0.555 ± 0.09 ×10⁻⁶ cm/s
same,"efflux ratio at 2 h, 2 µM","[1]; Caco-2, 2 μM, no BSA",1.55
same,"Papp A→B at 2 h, 2 µM","[1]; Caco-2, 2 μM, no BSA, 2 h, read-out: Mean Papp AP to BL",0.048 ± 0.006 ×10⁻⁶ cm/s
same,"Papp B→A at 2 h, 2 µM","[1]; Caco-2, 2 μM, no BSA, 2 h, read-out: Mean Papp BL to AP",0.065 ± 0.005 ×10⁻⁶ cm/s
same,"efflux ratio at 2 h, 5 µM","[1]; Caco-2, 5 µM, 0.1% bull serum albumin added",1.56
same,"Papp A→B at 2 h, 5 µM","[1]; Caco-2, 5 µM, 0.1% bull serum albumin added, read-out: Mean Papp AP to BL",0.097 ± 0.005 ×10⁻⁶ cm/s
same,"Papp B→A at 2 h, 5 µM","[1]; Caco-2, 5 µM, 0.1% bull serum albumin added, read-out: Mean Papp BL to AP",0.153 ± 0.012 ×10⁻⁶ cm/s
same,"efflux ratio at 2 h, 5 µM","[1]; Caco-2, 5 μM, no BSA",1.06
same,"Papp A→B at 2 h, 5 µM","[1]; Caco-2, 5 μM, no BSA, 2 h, read-out: Mean Papp AP to BL",0.044 ± 0.003 ×10⁻⁶ cm/s
same,"Papp B→A at 2 h, 5 µM","[1]; Caco-2, 5 μM, no BSA, 2 h, read-out: Mean Papp BL to AP",0.043 ± 0.004 ×10⁻⁶ cm/s
same,"efflux ratio at 2 h, 15 µM","[1]; Caco-2, 15 µM, 0.1% bull serum albumin added",2.91
same,"Papp A→B at 2 h, 15 µM","[1]; Caco-2, 15 µM, 0.1% bull serum albumin added, read-out: Mean Papp AP to BL",0.045 ± 0.002 ×10⁻⁶ cm/s
same,"Papp B→A at 2 h, 15 µM","[1]; Caco-2, 15 µM, 0.1% bull serum albumin added, read-out: Mean Papp BL to AP",0.132 ± 0.035 ×10⁻⁶ cm/s
same,"efflux ratio at 2 h, 25 µM","[1]; Caco-2, 25 µM, 0.1% bull serum albumin added",1.49
same,"Papp A→B at 2 h, 25 µM","[1]; Caco-2, 25 µM, 0.1% bull serum albumin added, read-out: Mean Papp AP to BL",0.146 ± 0.009 ×10⁻⁶ cm/s
same,"Papp B→A at 2 h, 25 µM","[1]; Caco-2, 25 µM, 0.1% bull serum albumin added, read-out: Mean Papp BL to AP",0.216 ± 0.031 ×10⁻⁶ cm/s
same,Papp at 2 h,"[1]; Caco-2, text summary of Table 2, 0.1% BSA added, read-out: Papp, AP→BL or BL→AP direction",≤ 2.5 ×10⁻⁶ cm/s
same,recovery at 2 h,"[1]; Caco-2, text summary of Table 2, 0.1% BSA added, read-out: total recovery rate",> 90%
same,Papp at 2 h,"[1]; Caco-2, text summary, no BSA, over the concentrations tested, read-out: Papp range",0.04 to 0.49 ×10⁻⁶ cm/s
same,recovery at 2 h,"[1]; Caco-2, text summary, no BSA, over the concentrations tested, read-out: total recovery rate AP→BL",35.8 to 52.4%
same,recovery at 2 h,"[1]; Caco-2, text summary, no BSA, over the concentrations tested, read-out: total recovery rate BL→AP",25.9 to 53%
same,Recoveries AP to BL,"[2]; 0.5 μM, no BSA",8.745 ± 0.155%
same,Recoveries BL to AP,"[2]; 0.5 μM, no BSA",25.54 ± 1.55%
same,Total Recoveries AP to BL,"[2]; 0.5 μM, no BSA",35.77 ± 1.29%
same,Total Recoveries BL to AP,"[2]; 0.5 μM, no BSA",25.48 ± 1.13%
same,transport mechanism in the Caco-2 model,[2]; 2 µM to 25 µM,may involve passive diffusion
same,Recoveries AP to BL,"[2]; 2 μM, no BSA",13.419 ± 0.566%
same,Recoveries BL to AP,"[2]; 2 μM, no BSA",47.16 ± 1.32%
same,Total Recoveries AP to BL,"[2]; 2 μM, no BSA",39.67 ± 1.47%
same,Total Recoveries BL to AP,"[2]; 2 μM, no BSA",47.69 ± 2.10%
same,Recoveries AP to BL,[2]; [4],85.52 ± 2.34%
same,Recoveries BL to AP,[2]; [4],96.32 ± 5.15%
same,Total Recoveries AP to BL,[2]; [4],92.83 ± 3.44%
same,Total Recoveries BL to AP,[2]; [4],96.41 ± 3.52%
same,Recoveries AP to BL,"[2]; 5 μM, no BSA",26.76 ± 1.02%
same,Recoveries BL to AP,"[2]; 5 μM, no BSA",52.42 ± 2.20%
same,Total Recoveries AP to BL,"[2]; 5 μM, no BSA",52.34 ± 4.34%
same,Total Recoveries BL to AP,"[2]; 5 μM, no BSA",53.02 ± 2.01%
same,Recoveries AP to BL,[2]; [5],84.85 ± 3.36%
same,Recoveries BL to AP,[2]; [5],96.18 ± 6.56%
same,Total Recoveries AP to BL,[2]; [5],92.83 ± 4.26%
same,Total Recoveries BL to AP,[2]; [5],96.97 ± 4.32%
same,Recoveries AP to BL,[2]; [6],82.25 ± 2.28%
same,Recoveries BL to AP,[2]; [6],89.52 ± 4.19%
same,Total Recoveries AP to BL,[2]; [6],90.91 ± 4.63%
same,Total Recoveries BL to AP,[2]; [6],89.63 ± 3.26%
same,permeability classification,[2]; Papp ≤ 2.5 (×10^−6 cm·s^−1) indicated low permeability,low permeability
same,concentration in different organs,[3]; 1 h after intravenous injection,"concentration in the liver and bile was higher compared with other organs; also recorded: Lung, kidney, spleen, stomach, excrement, and urine contained moderate amounts; also recorded: highest 2,5-BHPA concentration level was detected in the liver"
same,detection in the brain,[3]; 60 min after intravenous injection,detected in the brain
